The assay concerns M. furfur ATCC 14521. Nature of the assay: Antifungal activity (log reduction) on M. furfur. The assay is classed as cell-based. The settings on record: contact time 24 hr, 10 mg sample in 1000 μL inoculum, 10^5 cells/ml, 32° C. As for the experimental part: The above samples were subjected to their anti fungal efficacy on M. furfur as described hereinafter.
M. furfur ATCC 14521 strain was revived from glycerol stock on Modified Dixon agar. Plate was at 30° C. for 72 hrs. Approximately 72 hrs prior to testing, the plate culture was inoculated onto the surface of another sterile Modified Dixon agar plate and incubated at 30° C. for approximately 72 hrs. From second subculture, the optical density of culture is adjusted at 620 nm to give cell strength of 10^7 cfu/ml. The culture was further diluted for 100 times to achieve 10^5 cfu/ml in Pityrosporum broth.
1000 μL of M. furfur inocula were added to the above tubes and a blank sterile 1.5 ml Eppendorf tube (no particles as control), respectively so that the load in each tube is 10^5 cells/ml.
All the samples were kept shaken @120 RPM in a shaker incubator at 32° C. After 24 hours incubation, 10 μL of the samples were withdrawn from the respective 1.5 ml Eppendorf tubes and diluted with 990 μL of Pityrosporum broth. This represents 10^−2 dilution. Serial dilution was performed from the above 24 hours inocula and plated 100 μL of dilution onto modified Dixon plate. Plate dilution 10^−2, 10^−3, 10^−4 and 10^−5. All the plates were kept for incubation at 32° C. for 24-72 hrs. Plate count for all the plates were done.

Take zinc pyrithione [Example B]: the Log reduction stood at 1.58.

The values above are taken from US20200397673A1, “AN ANTIMICROBIAL COMPOSITION” (Conopco, Inc., d/b/a UNILEVER, priority 2017, published 2020).
